Assays:
[1] = tested on: naïve primary midbrain dopamine neurons; experiment: Survival of naïve cultured dopamine neurons (TH-positive cell count); assay type: cell-based, mouse
Procedure: (§1) We developed a compound library containing 20 diol derivatives and screened them on cultured primary DA neurons (Supplementary Materials, Table S1). Compounds were taken at a dose of 0.1 and 1 μM (based on effective doses for the epoxydiol). Based on the screening results, we selected four compounds and tested them in a naïve and MPP^+-treated (1-methyl-4-phenylpyridinium (MPP^+), the neurotoxic metabolite of MPTP) DA culture at 1, 10, and 100 nM to select the compound with the lowest effective dose.
(§2) The survival of cultured mouse DA neurons was assessed as described before. Briefly, naïve or MPP^+ (dopaminergic selective neurotoxin)-challenged embryonic midbrain neurons were cultured in the presence or absence of a diol-like compound. The number of survived DA neurons was estimated after immunocytochemical staining with antibodies recognizing the key enzyme of dopamine synthesis—tyrosine hydroxylase.

[2] = tested on: naïve primary midbrain dopamine neurons; parameters: method as in PMID 31464415; conditions: cultured DA neurons; cited from earlier work
MPTP-treated mice = tested on: MPTP-treated mice; parameters: method as in PMID 31464415; conditions: related compound; cited from earlier work
[3] = tested on: MPTP-lesioned C57BL/6 mice; experiment: DA and DOPAC levels in midbrain and striatum by HPLC-ED after MPTP lesion; assay type: in vivo
Procedure: Neurochemical analyses via HPLC-ED were conducted as described before. Microdissected samples of the striatum (ST) and midbrain were homogenized in 300 and 400 µL of cold 0.6 M HClO4, respectively, using a motor-driven grinder (Z359971, Sigma-Aldrich, USA) and the homogenate was spun for 15 min at 12,000 rpm (+4 °C). The pellet was diluted in 1 mL of 0.1 M NaCl and used for protein quantitation by Bradford (Bio Rad, USA) according to the manufacturer’s protocol. The clear supernatant was diluted twice with pure water and used for assay of DA and […] (DOPAC) by HPLC on Luna C18(2) column (5 μm particle size, L × I.D. 75 × 4.6 mm, Phenomenex, Torrance, CA, USA) with electrochemical detection (750 mV, DECADE II™ Electrochemical Detector; Antec, The Netherlands). The standard mixes containing 1, 2, and 3 ng of DA and DOPAC were repeatedly assayed throughout the entire procedure and used to plot the calibration curves for each substance. The areas of peaks were estimated using LabSolution LG/GC software version 5.54 (Shimadzu Corporation, Japan) and calibrated against the calibrated curves for corresponding standards. The contents of DA and DOPAC were expressed nanogram (ng) per milligram (mg) of protein assayed by Bradford.

[4] = tested on: MPP^+-treated primary midbrain dopamine neurons; experiment: Survival of MPP+-challenged cultured dopamine neurons (TH-positive cell count); assay type: cell-based, mouse
Procedure: as §1, §2

[5] = 1 uM, compared to VEH-treated wells
[6] = positive control, compared to VEH

## C=C(CSCc1ccccc1)C1CC2OC2(C)C(O)C1O (stereo not drawn) [Substance 13]
[1]; [5]
  Support effect / inhibition, Naïve dopamine neurons, 1 uM: - (29-1% – -)

## C=C(C)[C@@H]1C[C@H]2O[C@@]2(C)[C@@H](O)[C@@H]1O [epoxydiol]
[2]
  effective concentration in survival assay for DA neurons: 100 nM
  effective doses in survival assay of cultured dopamine neurons: 0.1 to 1 µM
MPTP-treated mice
  antiparkinsonian activity in vivo (effective dose): 20 mg/kg

## C#CC1(O)C(O)C(C)=CCC1C(=C)C (stereo not drawn) [Substance 7]
[1]; [5]
  Support effect / inhibition, Naïve dopamine neurons, 1 uM: - (29-1% – -)

## N[C@@H](Cc1ccc(O)c(O)c1)C(=O)O [L-DOPA, reference compound]
[3]
  MPTP-induced reduction in DA level in the midbrain: tended to alleviate

## C=C(CSc1ccc(Cl)cc1)C1CC2OC2(C)C(O)C1O (stereo not drawn) [Substance 9]
[1]; [5]
  Support effect / inhibition, Naïve dopamine neurons, 1 uM: - (29-1% – -)

## C=C(C)[C@@H]1CC=C(C)[C@@H](OC(C)=O)[C@@H]1OC(C)=O [Substance 1]
[1]; Mus musculus, Neuron, 1 uM, compared to VEH-treated wells, read-out: Support effect / inhibition, Naïve dopamine neurons, 1 uM
  inhibition at 1 µM: 1 to 29%

## C=C(CSC(C)(C)C)C1CC2OC2(C)C(O)C1O (stereo not drawn) [Substance 10]
[1]; [5]
  Support effect / inhibition, Naïve dopamine neurons, 1 uM: - (29-1% – -)

## C=CC1(O)C(O)C(C)=CCC1C(=C)C (stereo not drawn) [Substance 8]
[4]; 1 nM, compared to VEH-treated wells
  Support effect / inhibition, MPP+-treated dopamine neurons, 1 nM: 0 (0% – 0)
[4]; 10 nM, compared to VEH-treated wells
  Support effect / inhibition, MPP+-treated dopamine neurons, 10 nM: 0 (0% – 0)
[4]; 100 nM, compared to VEH-treated wells
  Support effect / inhibition, MPP+-treated dopamine neurons, 100 nM: 0 (0% – 0)

## C=C(CSCC(C)C)C1CC2OC2(C)C(O)C1O (stereo not drawn) [Substance 11]
[1]; [5]
  Support effect / inhibition, Naïve dopamine neurons, 1 uM: - - (Inhibition 69-30% – - -)

B1: GDNF: glial cell line-derived neurotrophic factor, positive control in the neuron survival assays (protein, UniProt P39905 78-211, looked up)
Glial cell line-derived …: SPDKQMAVLPRRERNRQAAAANPENSRGKGRRGQRGKNRGCVLTAIHLNVTDLGLGYETKEELIFRYCSGSCDAAETTYDKILKNLSRNRRLVSDKVGQACCRPIAFDDDLSFLDDNLVYHILRKHSAKRCGCI
[1]; [6]
  survival of naïve primary midbrain dopamine neurons: promotes the survival
[4]; [6]
  survival of MPP+-treated primary midbrain dopamine neurons: promotes the survival

Source: publication PMC9738927, “A Newly Identified Monoterpenoid-Based Small Molecule Able to Support the Survival of Primary Cultured Dopamine Neurons and Alleviate MPTP-Induced Toxicity In Vivo” (Molecules, 2022)
